The values that follow come from ChEMBL document CHEMBL1148727, “Discovery of 1,4-dihydroxy-2-naphthoate [corrected] prenyltransferase inhibitors: new drug leads for multidrug-resistant gram-positive pathogens” (2007).

For orientation: MIC means the smallest concentration in the dilution series that meets the test's criterion for growth inhibition. Read a low MIC as inhibition by little substance.

Holding throughout (type): functional
Test [1] relates to Mycobacterium tuberculosis. Description: Antibacterial activity against rifampicin-resistant Mycobacterium tuberculosis H37Rv after 18 hrs by agar plate dilution method.
Test [2] relates to Mycobacterium tuberculosis. Description: Antibacterial activity against isoniazid-resistant Mycobacterium tuberculosis H37Rv after 18 hrs by agar plate dilution method.
Test [3] has as its system Mycobacterium tuberculosis variant bovis BCG. Put plainly: Antibacterial activity against Mycobacterium bovis BCG Tokyo after 18 hrs by agar plate dilution method.

Each structure is given as a SMILES string. Values after ≈ are worked out from the molar mass of the structure shown.

As for `CO[C@H]1/C=C/O[C@@]2(C)Oc3c(C)c(O)c4c(O)c(c(/C=N/N5CCN(C)CC5)c(O)c4c3C2=O)NC(=O)/C(C)=C\C=C\[C@H](C)[C@H](O)[C@@H](C)[C@@H](O)[C@@H](C)[C@H](OC(C)=O)[C@@H]1C` [RIFAMPIN], the figures for the MIC in test [1], in test [2] and in test [3] were more than 25 µg/mL, 0.2 µg/mL (≈ 0.243 µM) and 0.1 µg/mL (≈ 0.122 µM), respectively.

With `C=CCN(C)CCCCCCCCOc1ccc(C(=O)c2ccc(Cl)cc2)c(O)c1`, the MIC in test [1] turned out to be 1.5 µg/mL (≈ 3.49 µM); in test [2], 1.5 µg/mL (≈ 3.49 µM); in test [3], 3.1 µg/mL (≈ 7.21 µM).

On to `NNC(=O)c1ccncc1` [ISONIAZID], for which the MIC in test [1] was 0.05 µg/mL (≈ 0.365 µM); in test [2], more than 25 µg/mL; in test [3], 0.1 µg/mL (≈ 0.729 µM).
